# Laboratory results reported in patent publication US9067898B1, “Isothiazole derivatives as GPR120 agonists for the treatment of type II diabetes” (Janssen Pharmaceutica NV, priority 2014, dated 2015).
# Experiments:
# [1] = target: T1, long form of human GPR120 (Homo sapiens, UniProt Q5NUL3); test: Human GPR120 DiscoveRx PathHunter Beta-Arrestin assay, Procedure β-arrestin A; type: cell-based; conditions: PathHunter CHO-K1 GPR120 β-Arrestin cell line, 3000 cells per well, read-out: hGPR120 β-arrestin A EC50
# T1 construct: host or cells: PathHunter CHO-K1 GPR120 β-Arrestin Cell Line
# T1 sequence (Q5NUL3 1-377 isoform Q5NUL3-1): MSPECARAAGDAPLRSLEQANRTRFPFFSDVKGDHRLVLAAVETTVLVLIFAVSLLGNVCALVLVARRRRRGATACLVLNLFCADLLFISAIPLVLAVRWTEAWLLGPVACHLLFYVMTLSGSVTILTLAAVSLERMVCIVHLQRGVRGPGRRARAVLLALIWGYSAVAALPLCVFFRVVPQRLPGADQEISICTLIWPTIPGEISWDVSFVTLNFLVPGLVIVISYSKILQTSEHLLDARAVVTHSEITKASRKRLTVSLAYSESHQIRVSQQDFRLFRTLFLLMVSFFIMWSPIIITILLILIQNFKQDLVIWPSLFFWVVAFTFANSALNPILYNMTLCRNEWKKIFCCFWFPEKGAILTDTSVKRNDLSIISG
# T1 sequence (P32121 whole entry partner): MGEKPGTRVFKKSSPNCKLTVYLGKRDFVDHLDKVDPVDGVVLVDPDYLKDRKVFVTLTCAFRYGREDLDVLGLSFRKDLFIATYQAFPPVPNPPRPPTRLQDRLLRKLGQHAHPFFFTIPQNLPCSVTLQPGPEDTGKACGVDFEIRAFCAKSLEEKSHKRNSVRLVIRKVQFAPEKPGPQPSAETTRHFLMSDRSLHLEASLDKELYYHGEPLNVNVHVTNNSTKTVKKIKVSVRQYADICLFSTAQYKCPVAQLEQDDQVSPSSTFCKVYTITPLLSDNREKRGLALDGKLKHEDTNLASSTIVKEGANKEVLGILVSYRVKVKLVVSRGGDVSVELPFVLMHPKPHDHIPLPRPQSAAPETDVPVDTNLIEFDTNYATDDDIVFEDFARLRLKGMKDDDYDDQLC
# Outline: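 PathHunter CHO-K1 β-arrestin cells expressed long-form GPR120 (Procedure A, 3000 cells/well) or short-form GPR120 (Procedure B, 5000 cells/well). Compounds were serially diluted from 25 µM and incubated 90 min at 37 °C in HBSS/20 mM HEPES/0.1% BSA, pH 7.4. Luminescence was read after 60 min detection at RT; EC50 comes from % activity versus positive control, Hill slope fixed at 1.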
# Human GPR120 short form = target: T2, Human GPR120 short form (Homo sapiens, UniProt Q5NUL3); test: Human GPR120 calcium flux assay (FLIPR), Procedure Calcium A; type: cell-based; conditions: HEK-293 cells expressing human GPR120 short form, 2500 cells/well; read-out: GPR120 Ca2+ Assay A EC50
# T2 construct: expressed in transfected cells
# T2 sequence (Q5NUL3 1-361): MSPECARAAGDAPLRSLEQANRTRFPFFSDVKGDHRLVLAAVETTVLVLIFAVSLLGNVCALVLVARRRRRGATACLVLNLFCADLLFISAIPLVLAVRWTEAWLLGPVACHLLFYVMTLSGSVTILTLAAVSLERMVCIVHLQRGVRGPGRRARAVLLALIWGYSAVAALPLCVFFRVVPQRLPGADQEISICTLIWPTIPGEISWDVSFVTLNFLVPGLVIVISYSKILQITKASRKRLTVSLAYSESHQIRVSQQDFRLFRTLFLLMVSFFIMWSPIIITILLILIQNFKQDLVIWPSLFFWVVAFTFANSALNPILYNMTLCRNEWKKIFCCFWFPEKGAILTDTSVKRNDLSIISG
# Outline: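 HEK293 cells stably expressing the short isoform (NM_001195755.1), 2500/well, starved 1 h, then loaded with Fluo-4 NW plus probenecid (30 min 37 °C, 15 min RT). Compound solutions 0.012–100 μM, 0.2% DMSO final; FLIPR read 300 s after addition. EC50 from Fmax−Fmin fitted to variable-slope sigmoid (Hill <2).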
EC50 [1],EC50 (Human GPR120 short form),SMILES
0.185 µM,0.074 µM,"COc1ccc(-c2nsc(C(F)(F)F)c2COc2c(F)cc(CCC(=O)O)cc2F)cn1 [Cpd 98, 3-(3,5-difluoro-4-((3-(6-methoxypyridin-3-yl)-5-(trifluoromethyl)isothiazol-4-yl)methoxy)phenyl) propanoic acid]"
0.091 µM,0.075 µM,"COc1ccc(-c2nsc(C(F)(F)F)c2COc2c(F)cc(CCC(=O)O)cc2F)cc1 [Cpd 99, 3-(3,5-difluoro-4-[[3-(4-methoxyphenyl)-5-(trifluoromethyl)-1,2-thiazol-4-yl]methoxy]phenyl)propanoic acid]"
0.189 µM,0.076 µM,"Cc1c(CCC(=O)O)ccc(OCc2c(Cl)nsc2-c2ccccc2)c1C [Cpd 101, 3-[4-[(3-chloro-5-phenyl-1,2-thiazol-4-yl)methoxy]-2,3-dimethylphenyl]propanoic acid]"
0.399 µM,0.083 µM,"Cc1c(CCC(=O)O)ccc(OCc2c(Cl)nsc2-c2ccccc2Cl)c1C [Cpd 104, 3-(4-[[3-chloro-5-(2-chlorophenyl)-1,2-thiazol-4-yl]methoxy]-2,3-dimethylphenyl)propanoic acid]"
0.217 µM,0.086 µM,"CCc1ccc(-c2nsc(C(F)(F)F)c2COc2ccc(CC(C)C(=O)O)cc2F)cc1 (stereo not drawn) [Cpd 105, 3-(4-((3-(4-ethylphenyl)-5-(trifluoromethyl)isothiazol-4-yl)methoxy)-3-fluorophenyl)-2-methylpropanoic acid]"
0.098 µM,0.086 µM,"O=C(O)CCc1ccc(OCc2c(-c3ccc(Cl)cc3)nsc2C(F)(F)F)c(F)c1F [Cpd 106, 3-(4-[[3-(4-chlorophenyl)-5-(trifluoromethyl)-1,2-thiazol-4-yl]methoxy]-2,3-difluorophenyl)propanoic acid]"
0.244 µM,0.098 µM,"CCc1ccc(-c2snc(Cl)c2COc2c(F)cc(CCC(=O)O)c(F)c2F)cc1 [Cpd 111, 3-(4-((3-chloro-5-(4-ethylphenyl)isothiazol-4-yl)methoxy)-2,3,5-trifluorophenyl)propanoic acid]"
0.071 µM,0.099 µM,"Cc1c(CCC(=O)O)cc(F)c(OCc2c(-c3ccc(Cl)cc3)nsc2C(F)(F)F)c1F [Cpd 113, 3-(4-((3-(4-chlorophenyl)-5-(trifluoromethyl)isothiazol-4-yl)methoxy)-3,5-difluoro-2-methylphenyl)propanoic acid]"
0.295 µM,0.1 µM,"O=C(O)CCc1cc(F)c(OCc2c(Cl)nsc2-c2ccc(Cl)cc2F)c(F)c1 [Cpd 114, 3-(4-((3-chloro-5-(4-chloro-2-fluorophenyl)isothiazol-4-yl)methoxy)-3,5-difluorophenyl)propanoic acid]"
0.07 µM,0.104 µM,"Cc1ccc(-c2nsc(C(F)(F)F)c2COc2c(F)cc(CCC(=O)O)cc2F)cc1 [Cpd 115, 3-(3,5-difluoro-4-[[3-(4-methylphenyl)-5-(trifluoromethyl)-1,2-thiazol-4-yl]methoxy]phenyl) propanoic acid]"
0.254 µM,0.104 µM,"CCc1ccc(-c2nsc(C(F)(F)F)c2COc2c(F)cc(CCC(=O)O)c(F)c2F)cc1 [Cpd 117, 3-(4-((3-(4-ethylphenyl)-5-(trifluoromethyl)isothiazol-4-yl)methoxy)-2,3,5-trifluorophenyl)propanoic acid]"
0.257 µM,0.105 µM,"CCc1ccc(-c2nsc(C(F)(F)F)c2COc2c(F)c(F)c(CCC(=O)O)c(F)c2F)cc1 [Cpd 118, 3-(4-((3-(4-ethylphenyl)-5-(trifluoromethyl)isothiazol-4-yl)methoxy)-2,3,5,6-tetrafluorophenyl)propanoic acid]"
0.128 µM,0.106 µM,"Cc1snc(-c2ccc(Cl)cc2)c1COc1ccc(CCC(=O)O)c(F)c1F [Cpd 119, 3-(4-((3-(4-chlorophenyl)-5-methylisothiazol-4-yl)methoxy)-2,3-difluorophenyl)propanoic acid]"
0.303 µM,0.111 µM,"COc1nsc(-c2ccc(C)cc2F)c1COc1c(F)cc(CCC(=O)O)cc1F [Cpd 123, 3-(3,5-difluoro-4-[[5-(2-fluoro-4-methylphenyl)-3-methoxy-1,2-thiazol-4-yl]methoxy]phenyl) propanoic acid]"
0.178 µM,0.122 µM,"CCc1ccc(-c2nsc(C(F)(F)F)c2COc2ccc(CCC(=O)O)c(C)c2C)cc1 [Cpd 127, 3-(4-((3-(4-ethylphenyl)-5-(trifluoromethyl)isothiazol-4-yl)methoxy)-2,3-dimethylphenyl)propanoic acid]"
0.122 µM,0.13 µM,"OCCCc1ccc(OCc2c(-c3ccc(Cl)cc3)nsc2C(F)(F)F)c(F)c1F [Cpd 132, 3-(4-((3-(4-chlorophenyl)-5-(trifluoromethyl)isothiazol-4-yl)methoxy)-2,3-difluorophenyl)propan-1-ol]"
0.539 µM,0.131 µM,"Cc1c(CCC(=O)O)ccc(OCc2c(-c3c(F)cc(Cl)cc3F)nsc2C(F)(F)F)c1C [Cpd 133, 3-(4-((3-(4-chloro-2,6-difluorophenyl)-5-(trifluoromethyl)isothiazol-4-yl)methoxy)-2,3-dimethylphenyl)propanoic acid]"
0.058 µM,0.134 µM,"CCc1ccc(-c2nsc(C(F)(F)F)c2COc2c(F)cc(CCCO)cc2F)cc1 [Cpd 135, 3-(4-((3-(4-ethylphenyl)-5-(trifluoromethyl)isothiazol-4-yl)methoxy)-3,5-difluorophenyl)propan-1-61]"
0.077 µM,0.138 µM,"CCc1ccc(-c2nsc(C(F)(F)F)c2COc2ccc(CCCO)c(F)c2F)cc1 [Cpd 139, 3-(4-((3-(4-ethylphenyl)-5-(trifluoromethyl)isothiazol-4-yl)methoxy)-2,3-difluorophenyl)propan-1-ol]"
0.067 µM,0.139 µM,"CCc1ccc(-c2snc(Cl)c2COc2c(F)cc(CCCO)c(F)c2F)cc1 [Cpd 140, 3-(4-((3-chloro-5-(4-ethylphenyl)isothiazol-4-yl)methoxy)-2,3,5-trifluorophenyl)propan-1-ol]"
0.105 µM,0.148 µM,"OCCCc1cc(F)c(OCc2c(C3CCCC3)nsc2C(F)(F)F)c(F)c1 [Cpd 141, 3-(4-[[3-cyclopentyl-5-(trifluoromethyl)-1,2-thiazol-4-yl]methoxy]-3,5-difluorophenyl)propan-1-ol]"
0.242 µM,0.165 µM,"Cc1cc(OCc2c(-c3ccc(Cl)c(F)c3)nsc2C(F)(F)F)c(F)cc1CCC(=O)O [Cpd 148, 3-(4-((3-(4-chloro-3-fluorophenyl)-5-(trifluoromethyl)isothiazol-4-yl)methoxy)-5-fluoro-2-methylphenyl)propanoic acid]"
0.24 µM,0.167 µM,"CCc1nsc(-c2ccc(C)cc2F)c1COc1c(F)cc(CCC(=O)O)cc1F [Cpd 150, 3-(4-[[3-ethyl-5-(2-fluoro-4-methylphenyl)-1,2-thiazol-4-yl]methoxy]-3,5-difluorophenyl)propanoic acid]"
0.431 µM,0.178 µM,"Cc1c(CCC(=O)O)ccc(OCc2c(Cl)nsc2-c2ccc(F)cc2)c1C [Cpd 154, 3-(4-[[3-chloro-5-(4-fluorophenyl)-1,2-thiazol-4-yl]methoxy]-2,3-dimethylphenyl)propanoic acid]"
0.368 µM,0.185 µM,"Cc1c(CCC(=O)O)ccc(OCc2c(Cl)nsc2-c2cccc(Cl)c2)c1C [Cpd 156, 3-(4-[[3-chloro-5-(3-chlorophenyl)-1,2-thiazol-4-yl]methoxy]-2,3-dimethylphenyl)propanoic acid]"
1.34 µM,0.217 µM,"Cc1c(CCC(=O)O)ccc(OCc2csnc2-c2ccc(Cl)cc2)c1C [Cpd 166, 3-(4-((3-(4-chlorophenyl)isothiazol-4-yl)methoxy)-2,3-dimethylphenyl)propanoic acid]"
0.325 µM,0.223 µM,"COc1ccc(-c2snc(Cl)c2COc2ccc(CCCO)c(F)c2F)cc1 [Cpd 168, 3-(4-[[3-chloro-5-(4-methoxyphenyl)-1,2-thiazol-4-yl]methoxy]-2,3-difluorophenyl)propan-1-ol]"
0.486 µM,0.225 µM,"O=C(O)CCc1cc(F)c(OCc2csnc2-c2ccc(Br)cc2)c(F)c1 [Cpd 169, 3-(4-((3-(4-bromophenyl)isothiazol-4-yl)methoxy)-3,5-difluorophenyl)propanoic acid]"
0.813 µM,0.225 µM,"Cc1c(CCC(=O)O)ccc(OCc2csnc2-c2ccc(Br)cc2)c1C [Cpd 170, 3-(4-((3-(4-bromophenyl)isothiazol-4-yl)methoxy)-2,3-dimethylphenyl)propanoic acid]"

SMILES,EC50 [1],EC50 (Human GPR120 short form)
Cc1c(CCC(=O)O)ccc(OCc2c(Cl)nsc2-c2ccc(Cl)cc2F)c1C [Cpd 122],1.29 µM,0.109 µM
